Where two headings read alike, the source gives them in different places.
Experiments:
MCF7 cell line = assay: In vitro cytotoxic activity, MTT method, MCF7; assay type: cell-based, human
Description: (§1) Cell lines: The in vitro human breast cancerous cell line (MCF7), lung cancerous cell lines (A549) and normal cell lines were purchased from Serum and Vaccine formulation in Cairo-Egypt.
(§2) In vitro cytotoxic activity of all synthesized compounds against two human breast cell line (MCF7) and lung cell lines (A549) was evaluated according to the MTT method. Firstly, Growth the cell line medium in 96 well tissue culture plate was injected with 10^5 cells/mL (100 uL/plate well) of the cell line and incubated at 37 °C for 24 h to develop a monolayer sheet then the formed growth medium was poured from 96 well microtiter plates after the confluent sheet of cells. […] Secondly, add 0.1 mL of each concentration tetrahydroisoquinoline sample to each plate. The plates were incubated at 37 °C. Thirdly MTT solution (5 mg/mL in PBS) is prepared. Add 20 µL of MTT solution to each well plates. And shaking in 150 rpm for 5 min, to mix the MTT into the media. Then incubate at (37 °C, 5% CO2) for 1–5 h. Finally read the optical density at 560 nm and subtract background at 620 nm.
(§3) In this work, doxorubicin was used as a positive control drug for comparison with the synthesized compounds under the same experimental conditions.

A549 cell line = assay: In vitro cytotoxic activity, MTT method, A549
Description: as §1, §2, §3

[1] = DPPH scavenging antioxidant activity
Description: The antioxidant activity of ten compounds was determined using DPPH [32–34]. A solution 1: prepared by dissolving DPPH (0.002 g) in ethanol (50 mL etnanol). Solution 2: prepared by dissolving different weights 0.05, 0.01 g of each sample in 1 mL of DMSO then take 10 µL of each sample solution with 1 mL ethanol. Then mix 1 mL of solution 1 with 1 mL of solution 2 then vortex the resulting mixture in the dark for about 30 min. The absorbance of the mixture was measured by spectrophotometer at λmax = 517 nm against blank 1 mL absolute ethanol and compared to the ascorbic acid (Vitamin C).
Ten newly synthesized compounds were studied as in vitro antioxidants by measuring of their DPPH scavenging activity which is represented as a percentage % [32]^. Results are represented by mean ± SD of three replicates. […] The higher dose concentration of 0.05 μg/mL represents higher antioxidant activity. […] The high antioxidant activity is referred to the presence of C=O, NH2, and OH groups like ascorbic acid which can be easily oxidized and reduced and can be used as antioxidant drugs. (Fig. 8 and Table 9).

CC(=O)C1C(c2ccc(N(C)C)cc2)c2c(C)nc3sc(C(=O)Nc4ccc(Cl)cc4)c(N)c3c2CC1(C)O (stereo not shown) [Compound 8c, 7-Acetyl-1-amino-N-(4-chlorophenyl)-5,8-dimethyl-8-hydroxy-6-(4-N,N-dimethyl-aminophenyl)-6,7,8,9-tetrahydrothieno[2,3-c]isoquinoline-2-carboxamide]
IC50 (MCF7 cell line; Homo sapiens, MCF7, MCF7 cell line, MTT): 215 ± 5 nM | Toxicity % (MCF7 cell line; MCF7, Conc. 0.0487 µMol): 26.68% | Viability % (MCF7 cell line; MCF7, Conc. 0.0487 µMol): 73.3223% | Toxicity % (MCF7 cell line; MCF7, Conc. 0.0975 µMol): 30.4566% | Viability % (MCF7 cell line; MCF7, Conc. 0.0975 µMol): 69.5434% | Toxicity % (MCF7 cell line; MCF7, Conc. 0.195 µMol): 40.36% | Viability % (MCF7 cell line; MCF7, Conc. 0.195 µMol): 59.64% | Toxicity % (MCF7 cell line; MCF7, Conc. 0.391 µMol): 60.25% | Viability % (MCF7 cell line; MCF7, Conc. 0.391 µMol): 39.75% | Toxicity % (MCF7 cell line; MCF7, Conc. 0.781 µMol): 70.02% | Viability % (MCF7 cell line; MCF7, Conc. 0.781 µMol): 29.98% | Toxicity % (MCF7 cell line; MCF7, Conc. 1.562 µMol): 85.7% | Viability % (MCF7 cell line; MCF7, Conc. 1.562 µMol): 14.3% | Toxicity % (MCF7 cell line; MCF7, Conc. 3.125 µMol): 96.45% | Viability % (MCF7 cell line; MCF7, Conc. 3.125 µMol): 3.554% | Toxicity % (MCF7 cell line; MCF7, Conc. 6.25 µMol): 96.57% | Viability % (MCF7 cell line; MCF7, Conc. 6.25 µMol): 3.431% | Toxicity % (MCF7 cell line; MCF7, Conc. 12.5 µMol): 97.1% | Viability % (MCF7 cell line; MCF7, Conc. 12.5 µMol): 2.9% | Toxicity % (MCF7 cell line; MCF7, Conc. 25 µMol): 96.94% | Viability % (MCF7 cell line; MCF7, Conc. 25 µMol): 3.064% | Toxicity % (A549 cell line; A549, Conc. 0.04875 µMol): 10.24% | Toxicity % (A549 cell line; A549, Conc. 0.0975 µMol): 14.26% | Toxicity % (A549 cell line; A549, Conc. 0.195 µMol): 18.74% | Viability % (A549 cell line; A549, Conc. 0.195 µMol): 81.26% | Toxicity % (A549 cell line; A549, Conc. 0.391 µMol): 47.14% | Viability % (A549 cell line; A549, Conc. 0.391 µMol): 52.86% | Toxicity % (A549 cell line; A549, Conc. 0.781 µMol): 65.05% | Viability % (A549 cell line; A549, Conc. 0.781 µMol): 34.95% | Toxicity % (A549 cell line; A549, Conc. 1.562 µMol): 75.74% | Viability % (A549 cell line; A549, Conc. 1.562 µMol): 24.26% | Toxicity % (A549 cell line; A549, Conc. 3.125 µMol): 84.18% | Viability % (A549 cell line; A549, Conc. 3.125 µMol): 15.82% | Toxicity % (A549 cell line; A549, Conc. 6.25 µMol): 89.35% | Viability % (A549 cell line; A549, Conc. 6.25 µMol): 10.65% | Toxicity % (A549 cell line; A549, Conc. 12.5 µMol): 96.69% | Viability % (A549 cell line; A549, Conc. 12.5 µMol): 3.314% | Toxicity % (A549 cell line; A549, Conc. 25 µMol): 97% | Viability % (A549 cell line; A549, Conc. 25 µMol): 2.998% | IC50 (A549 cell line; Homo sapiens, read-out: IC50 ± SD): 332 ± 2 nM

COc1cccc2c1C(=O)c1c(O)c3c(c(O)c1C2=O)C[C@@](O)(C(=O)CO)C[C@@H]3O[C@H]1C[C@H](N)[C@H](O)[C@H](C)O1 [Douxrbicin]
IC50 (A549 cell line; A549): 218 nM | Toxicity % (A549 cell line; A549, Conc. 0.0487 µMol): 20% | Viability % (A549 cell line; A549, Conc. 0.0487 µMol): 80% | Viability % (A549 cell line; A549, Conc. 0.0975 µMol): 73.2% | Toxicity % (A549 cell line; A549, Conc. 0.195 µMol): 36.33% | Viability % (A549 cell line; A549, Conc. 0.195 µMol): 63.67% | Toxicity % (A549 cell line; A549, Conc. 0.391 µMol): 62.45% | Viability % (A549 cell line; A549, Conc. 0.391 µMol): 37.55% | Viability % (A549 cell line; A549, Conc. 0.781 µMol): 20.26% | Toxicity % (A549 cell line; A549, Conc. 1.562 µMol): 89.84% | Viability % (A549 cell line; A549, Conc. 1.562 µMol): 10.16% | Toxicity % (A549 cell line; A549, Conc. 3.125 µMol): 93.56% | Viability % (A549 cell line; A549, Conc. 3.125 µMol): 6.44% | Toxicity % (A549 cell line; A549, Conc. 6.25 µMol): 95.35% | Viability % (A549 cell line; A549, Conc. 6.25 µMol): 4.651% | Toxicity % (A549 cell line; A549, Conc. 12.5 µMol): 97.9% | Viability % (A549 cell line; A549, Conc. 12.5 µMol): 2.1% | Toxicity % (A549 cell line; A549, Conc. 25 µMol): 98.9% | Viability % (A549 cell line; A549, Conc. 25 µMol): 1.1%

O=C1O[C@H]([C@@H](O)CO)C(O)=C1O [Vitamin C, ascorbic acid, reference compound]
DPPH scavenging, inhibition (%) ([1]; 0.01 µg/mL): 50.54 ± 2.76% | DPPH scavenging, inhibition (%) ([1]; 0.05 µg/mL): 69.90 ± 3.98%

— article PMC10873978, “Novel tetrahydroisoquinolines as DHFR and CDK2 inhibitors: synthesis, characterization, anticancer activity and antioxidant properties” (BMC Chemistry, 2024)
